Assay results published in patent US8487090B2, “Water solution of 20(R)-ginsenoside Rg3 pharmaceutical composition and process thereof” (Dalian Fusheng Natural Medicine Development Co., Ltd., priority 2006, dated 2013).
Where two headings read alike, the source gives them in different places. Marks after values point to notes of the source that are not given here.

Tests used:
[1] = cited from earlier work
Mouse Melanoma B16 Model = experiment: Caudal vein inoculation model, lung metastatic colonies; type: in vivo, C57BL/6 mouse
Experimental: (§1) Take intravenous administration, twice per day. For mice models inoculated with human tumor models and cells, continue injection for seven days; for mice models inoculated with mouse tumor cells, continue injection for five days.
(§2) Positive controls: CTX, 30 mg/kg; MMC, 2 mg/kg; 5Fu, 30 mg/kg; intraperitoneal or intravenous injection, once daily, continues for 7 days.
(§3) Mouse B16 melanoma cells in logarithmic growth phase are taken out under sterile condition, and a cell suspension with a density of about 2.5×10^5 cells/ml is prepared. Inoculate 0.2 ml/mouse of cell suspension into caudal vein of C57BL/6 mouse. Administrate the test drug next day according to the experimental design protocol, euthanize the animal after ˜3 weeks and remove the lungs from mice and count the metastatic colony in the lungs of each mouse. Calculate the tumor inhibition percentage based on the group mean colony by the following formula: Tumor inhibition percentage (%)=[(mean colony of control group−mean colony of treatment group)/mean colony of control group]×100% 5.3 Antineoplastic Toxicity Attenuation Bioassay

[2] = test system: mouse liver cancer model (Heps); experiment: Chemotherapy efficacy potentiation bioassay, tumor weight; type: in vivo
Experimental: Take strongly growing tumor cells under sterile condition, and prepare it into a cell suspension with a density of about 1˜2×10^7 cells/ml by a homogenate method. Inoculate 0.2 ml/mouse of the cell suspension subcutaneously into the armpit of the axillary host. Administrate the test drug next day according to the experimental design protocol. Euthanize each group animal after ˜3 weeks and remove the tumor from mice and weigh it. Calculate the tumor inhibition percentage by the following formula: Tumor inhibition percentage (%)=[(mean tumor weight of control group−mean tumor weight of treatment group)/mean tumor weight of control group]×100% 5.2.2 Caudal Vein Inoculation Model

[3] = test system: Human Gastric Cancer MGC Model; experiment: Stomach in situ inoculation model, survival; type: in vivo, nude mice; conditions: 30 mg/kg/d ip × 7 qd
Experimental: as §1, §2
Take strongly growing in-vivo 2nd-generation MGC stomach cancer (cells) under sterile condition, and prepare it into a cell suspension with a density of 2×10^7 cells/ml by a homogenate method. Inject 0.05 ml of the cell suspension into the muscular layer of greater curvature of stomach of the nude mice via a surgery operation. Administrate the above mice with test drug next day according to the experimental design protocol, and calculate the life extension percentage of the tumor bearing host: Life extension percentage (%)=(mean survival days of treatment group/mean survival days of control)×100% 5.1.2 Liver In Situ Inoculation Model

[4] = test system: Human Liver Cancer QGY Model; experiment: Liver in situ inoculation model, survival; type: in vivo, nude mice; conditions: 30 mg/kg/d ip × 7 qd
Experimental: as §1, §2

[5] = test system: Human Intestine Cancer LOVO Model; experiment: Efficacy bioassay on intestine cancer model, survival; type: in vivo, nude mice; conditions: 30 mg/kg/d ip × 7 qd
Source text: Human intestine cancer LOVO model, human stomach cancer MGC model, and human liver cancer QGY model, all tumor strains are in vivo subcultured for more than 2nd generation. Mouse melanoma B16 cell are subcultured and maintained by Pharmacology Department of Shanghai Institute of Pharmaceutical Industry.
as §1, §2

[6] = Chemotherapy toxicity attenuation bioassay, blood counts; type: in vivo, mouse; conditions: Heps bearing mice
[7] = type: in vivo, C57BL/6 mouse; conditions: for Body Weight of Animals (g) End: Table 5
Experimental: as §3

SMILES: CC(C)=CCC[C@](C)(O)[C@H]1CC[C@]2(C)[C@@H]1[C@H](O)C[C@@H]1[C@@]3(C)CC[C@H](O[C@@H]4O[C@H](CO)[C@@H](O)[C@H](O)[C@H]4O[C@@H]4O[C@H](CO)[C@@H](O)[C@H](O)[C@H]4O)C(C)(C)[C@@H]3CC[C@]12C [20(R)-ginsenoside Rg3]
- solubility in water [1]: insoluble in water

SMILES: CC(C)=CCC[C@](C)(O)[C@H]1CC[C@]2(C)[C@@H]1[C@H](O)C[C@@H]1[C@@]3(C)CC[C@H](O[C@@H]4O[C@H](CO)[C@@H](O)[C@H](O)[C@H]4O[C@@H]4O[C@H](CO)[C@@H](O)[C@H](O)[C@H]4O)C(C)(C)[C@@H]3CC[C@]12C [20(S)-ginsenoside Rg3]
- solubility in water [1]: easily dissolvable in water

SMILES: O=P1(N(CCCl)CCCl)NCCCO1 (stereo not shown) [CTX, Cyclophosphamide]
- Antimetastatic Percentage % (Mouse Melanoma B16 Model; Table 2, 100 mg/kg/d ip × 2 qd): 92.41%
- Lung Colony (number) mean ± SD (Mouse Melanoma B16 Model; Table 2, 100 mg/kg/d ip × 2 qd): 3.5 ± 3.7 number
- Antimetastatic Percentage % (Mouse Melanoma B16 Model; Table 5, 15 mg/kg/d ip × 7 qd): 48.11%
- Lung Colony (number) mean ± SD (Mouse Melanoma B16 Model; Table 5, 15 mg/kg/d ip × 7 qd): 26.1 ± 5.2 number
- Antimetastatic Percentage % (Mouse Melanoma B16 Model; Table 5, 30 mg/kg/d ip × 7 qd): 93.44%
- Lung Colony (number) mean ± SD (Mouse Melanoma B16 Model; Table 5, 30 mg/kg/d ip × 7 qd): 3.30 ± 2.6 number
- Mean Tumor weight (g, mean ± SD) ([2]; 10 × 3 mg/kg/d): 0.89 ± 0.29 g
- Tumor Inhibition Percentage (%) ([2]; 10 × 3 mg/kg/d): 56.52%
- Life Extension Percentage T/C × % [3]: 181.02%
- Mean Survival Time (d) mean ± SD [3]: 41.20 ± 3.8 days
- Life Extension Percentage T/C × % [4]: 157.53%
- Mean Survival Time (d) mean ± SD [4]: 34.50 ± 4.0 days
- Life Extension Percentage T/C × % [5]: 214.71%
- Mean Survival Time (d) mean ± SD [5]: 29.20 ± 4.8 days
- Hb ([6]; 10 × 3 mg/kg/d): 82 ± 8.4 g/L
- RBC 10^12/L ([6]; 10 × 3 mg/kg/d): 2.8 ± 0.3** 10^12/L
- WBC (10^9/L) ([6]; 10 × 3 mg/kg/d): 3.2 ± 0.5** 10^9/L
- Body Weight of Animals (g) end ([7]; Table 2, 100 mg/kg/d ip × 2 qd): 19.8/22.6 g
- Body Weight of Animals (g) End ([7]; 15 mg/kg/d ip × 7 qd): 20.2/24.7 g
- Body Weight of Animals (g) End ([7]; 30 mg/kg/d ip × 7 qd): 19.9/22.6 g

SMILES: O=c1[nH]c(=O)n([C@H]2C[C@H](O)[C@@H](CO)O2)cc1F [Example 5Fu, 5-Fluorodeoxyuridine]
- Mean Tumor weight (g, mean ± SD) ([2]; 25 × 3 mg/kg/d): 1.08 ± 0.34 g
- Tumor Inhibition Percentage (%) ([2]; 25 × 3 mg/kg/d): 41.30%
- Hb ([6]; 25 × 3 mg/kg/d): 90 ± 13.0 g/L
- RBC 10^12/L ([6]; 25 × 3 mg/kg/d): 3.1 ± 0.4 10^12/L
- WBC (10^9/L) ([6]; 25 × 3 mg/kg/d): 3.9 ± 0.3** 10^9/L

SMILES: CN(Cc1cnc2nc(N)nc(N)c2n1)c1ccc(C(=O)N[C@@H](CCC(=O)O)C(=O)O)cc1 [MTX]
- Mean Tumor weight (g, mean ± SD) ([2]; 5 × 3 mg/kg/d): 0.27 ± 0.01 g
- Tumor Inhibition Percentage (%) ([2]; 5 × 3 mg/kg/d): 85.32%
- Hb ([6]; 5 × 3 mg/kg/d): 51 ± 1.0 g/L
- RBC 10^12/L ([6]; 5 × 3 mg/kg/d): 1.8 ± 0.1** 10^12/L
- WBC (10^9/L) ([6]; 5 × 3 mg/kg/d): 1.6 ± 0.1** 10^9/L

SMILES: N.N.[Cl][Pt][Cl] [PDD]
- Mean Tumor weight (g, mean ± SD) ([2]; 1 × 3 mg/kg/d): 1.09 ± 0.30 g
- Tumor Inhibition Percentage (%) ([2]; 1 × 3 mg/kg/d): 40.76%
